Measurements as given in patent US20200246316A1, “METHODS OF TREATING POST-SURGICAL PAIN WITH A THIAZOLINE ANTI-HYPERALGESIC AGENT” (CERSCI THERAPEUTICS, INC., priority 2019, published 2020).
Counter-ions that a name gives are not always drawn. Like-named read-outs stand apart in the source and are kept apart here.

How the values were obtained:
[1] = Rat 28-day GLP repeat dose PO study (toxicokinetics); assay type: in vivo; settings: rat, in vivo, po; for Vd/F / half-life / Tmax / AUC / AUC(0-inf) / CL/F / Cmax: male; for half-life: read-out: t1/2 (converted); for Tmax: read-out: tmax; for Cmax: read-out: Cmax
Method: The vehicle was 0.5% HPMC. There were 15 rats/sex in the control and high dose groups (5/sex for a 14-day recovery period) while the low and mid doses consisted of 10 rats/sex. Satellite groups of rats/sex/group for toxicokinetics were included.
Rats in Group 1 (Vehicle Control) were bled once at approximately 1 hour post-dose on those days.

[2] = Solubility in organic/aqueous solvents; assay type: physicochemical
Method: Polymorphic screening of crystalline Compound 1 was performed using 15 organic/aqueous solvent systems, including: n-heptane, methanol, toluene, acetone, tetrahydrofuran, iso-propanol, ethanol, ethyl acetate, iso-propyl acetate, tert-butylmethyl ether, […], 10% water/90% tetrahydrofuran, tert-butyl alcohol, water, and 1:1 tert-butyl alcohol:water.

[3] = 500 mg/kg, Day 1, M, 500 mg/kg PO
[4] = 500 mg/kg, Day 14, M, 500 mg/kg PO
[5] = 500 mg/kg, Day 28, M, 500 mg/kg PO
[6] = 1000 mg/kg, Day 1, M, 1000 mg/kg PO
[7] = 1000 mg/kg, Day 14, M, 1000 mg/kg PO
[8] = 1000 mg/kg, Day 28, M, 1000 mg/kg PO
[9] = 2000 mg/kg, Day 1, M, 2000 mg/kg PO
[10] = 2000 mg/kg, Day 14, M, 2000 mg/kg PO
[11] = 2000 mg/kg, Day 28, M, 2000 mg/kg PO

In the case of `CC1(C)SC(Nc2ccccc2O)=N[C@@H]1C(=O)O` [Compound 1, (R)-2-(2-hydroxyphenylamino)-5,5-dimethyl-4,5-dihydrothiazole-4-carboxylic acid mono-hydrochloride], the Vd/F ([1]; 500 mg/kg, Day 1, M, 500 mg/kg PO, read-out: V/F (Vz/F)) is reported as 11 L/kg, the half-life [1, 3] is reported as 4.18 h and the Tmax [1, 3] is reported as 1 h. It also gave an AUC [1, 4] of 244 µg·h/mL, an AUC(0-inf) [1, 4] of 258 µg·h/mL and a CL/F ([1]; 500 mg/kg, Day 14, M, 500 mg/kg PO, read-out: CL/F (CLss/F) (converted)) of 34.2 mL/min/kg. It also gave a Cmax [1, 4] of 45.8 µg/mL, a Vd/F ([1]; 500 mg/kg, Day 14, M, 500 mg/kg PO, read-out: V/F (Vss/F)) of 18.5 L/kg and a half-life [1, 4] of 6.27 h. For the same molecule, the Tmax [1, 4] was 1 h, the AUC [1, 5] was 305 µg·h/mL and the AUC(0-inf) [1, 5] was 333 µg·h/mL. For the same molecule, the CL/F ([1]; 500 mg/kg, Day 28, M, 500 mg/kg PO, read-out: CL/F (CLss/F) (converted)) was 27.3 mL/min/kg, the Cmax [1, 5] was 48.6 µg/mL and the Vd/F ([1]; 500 mg/kg, Day 28, M, 500 mg/kg PO, read-out: V/F (Vss/F)) was 16.4 L/kg. The half-life [1, 5] was 6.9 h, the Tmax [1, 5] was 1 h and the CL/F ([1]; 1000 mg/kg) was 56.8 mL/min/kg. For the same molecule, the AUC [1, 6] was 456 µg·h/mL, the AUC(0-inf) [1, 6] was 460 µg·h/mL and the CL/F ([1]; 1000 mg/kg, Day 1, M, 1000 mg/kg PO, read-out: CL/F (CLz/F) (converted)) was 36.2 mL/min/kg. The Cmax [1, 6] was 52.7 µg/mL, the Vd/F ([1]; 1000 mg/kg, Day 1, M, 1000 mg/kg PO, read-out: V/F (Vz/F)) was 10.9 L/kg and the half-life [1, 6] was 3.46 h. The Tmax [1, 6] was 1 h, the AUC [1, 7] was 293 µg·h/mL and the AUC(0-inf) [1, 7] was 296 µg·h/mL. It also gave a Cmax [1, 7] of 51.9 µg/mL, a Vd/F ([1]; 1000 mg/kg, Day 14, M, 1000 mg/kg PO, read-out: V/F (Vss/F)) of 18.1 L/kg and a half-life [1, 7] of 3.68 h. For the same molecule, the Tmax [1, 7] was 1 h, the AUC [1, 8] was 334 µg·h/mL and the AUC(0-inf) [1, 8] was 337 µg·h/mL. The CL/F ([1]; 1000 mg/kg, Day 28, M, 1000 mg/kg PO, read-out: CL/F (CLss/F) (converted)) was 49.8 mL/min/kg, the Cmax [1, 8] was 47.9 µg/mL and the Vd/F ([1]; 1000 mg/kg, Day 28, M, 1000 mg/kg PO, read-out: V/F (Vss/F)) was 14.3 L/kg. It also gave a half-life [1, 8] of 3.31 h, a CL/F ([1]; 2000 mg/kg) of 47.7 mL/min/kg and an AUC [1, 9] of 768 µg·h/mL. The AUC(0-inf) [1, 9] was 771 µg·h/mL, the CL/F ([1]; 2000 mg/kg, Day 1, M, 2000 mg/kg PO, read-out: CL/F (CLz/F) (converted)) was 43.2 mL/min/kg and the Cmax [1, 9] was 83.1 µg/mL. For the same molecule, the Vd/F ([1]; 2000 mg/kg, Day 1, M, 2000 mg/kg PO, read-out: V/F (Vz/F)) was 10.5 L/kg, the half-life [1, 9] was 2.81 h and the AUC [1, 10] was 701 µg·h/mL. It also gave an AUC(0-inf) [1, 10] of 709 µg·h/mL, a Cmax [1, 10] of 75.6 µg/mL and a Vd/F ([1]; 2000 mg/kg, Day 14, M, 2000 mg/kg PO, read-out: V/F (Vss/F)) of 15.1 L/kg. For the same molecule, the half-life [1, 10] was 3.66 h, the Tmax [1, 10] was 1 h and the AUC [1, 11] was 724 µg·h/mL. For the same molecule, the AUC(0-inf) [1, 11] was 731 µg·h/mL, the CL/F ([1]; 2000 mg/kg, Day 28, M, 2000 mg/kg PO, read-out: CL/F (CLss/F) (converted)) was 46 mL/min/kg and the Cmax [1, 11] was 83.6 µg/mL. For the same molecule, the Vd/F ([1]; 2000 mg/kg, Day 28, M, 2000 mg/kg PO, read-out: V/F (Vss/F)) was 14.1 L/kg, the half-life [1, 11] was 3.53 h and the t1/2 ([1]; 2000 mg/kg) was 8 05 hr. For the same molecule, the solubility ([2]; 10% water/tetrahydrofuran) was “sparingly soluble”, the solubility ([2]; 10% water:iso-propyl acetate) was “sparingly soluble” and the solubility ([2]; acetone) was “less than sparingly soluble”. For the same molecule, the solubility ([2]; ethanol) was “sparingly soluble”, the solubility ([2]; ethyl acetate) was “less than sparingly soluble” and the solubility ([2]; iso-propanol) was “sparingly soluble”. For the same molecule, the solubility ([2]; iso-propyl acetate) was “less than sparingly soluble”, the solubility ([2]; methanol) was “freely soluble” and the solubility ([2]; n-heptane) was “less than sparingly soluble”. The solubility ([2]; tert-butyl alcohol) was “less than sparingly soluble”, the solubility ([2]; tert-butyl alcohol:water (1:1)) was “freely soluble” and the solubility ([2]; tert-butyl methyl ether) was “less than sparingly soluble”. For the same molecule, the solubility ([2]; tetrahydrofuran) was “less than sparingly soluble”, the solubility ([2]; toluene) was “less than sparingly soluble” and the solubility ([2]; water) was “sparingly soluble”.
